Consider 5 molecules from patent US20080306002A1, “Combination Therapy for Preventing Angiogenesis” (The General Hospital Corporation, priority 2005, published 2008).

The subject of experiment [1] is IL8 promoter. Briefly: IL-8 promoter reporter assay in DLD-1^HIF-kd cells in hypoxia. Type of experiment: cell-based. On the procedure: (§1) Cell lines. DLD-1 and Caco2 cells (ATCC) were stably transfected with HIF-1α siRNA constructs (pSuper.retro, OligoEngine), pSR.HIF-1α1470 or pSR.HIF-1α2192^10. […] In a pilot xenograft study, growth, microvascular density, VEGF and IL-8 levels were similar between a pSR.HIF-1α1470 clone and pSR.HIF-1α2192 clone. […] Transient transfections were performed using Lipofectamine 2000 (Invitrogen).
(§2) Transfections and Reporter Assays. 0.1-0.2 μg reporter constructs were co-transfected with 2 ng of pRL-CMV (Promega) and luciferase activity was measured with the Dual Luciferase Reporter Assay System (Promega). pRL-null, a promoter-less Renilla construct, was used when cells were co-transfected with a K-ras expression vector^29. The relative luciferase activity was calculated as Firefly/Renilla luciferase activity. The level of ‘hypoxic induction’ was the ratio between the relative luciferase activity in hypoxia to that in normoxia.
Background: In a reporter assay the amount or activity of a reporter protein is the signal.

The test system of the next experiment is IL-8. Nature of the experiment: IL-8 mRNA (qRT-PCR) in parental DLD-1 cells given t-butyl hydroperoxide. In kind it is cell-based. On the procedure: Real-time PCR assay. RNA was extracted using the RNeasy kit (Qiagen) and quantitative reverse-transcription PCR was performed using the SuperScript III platinum Two-Step qRT-PCR Kit (Invitrogen). Primer sequences for VEGF, IL-8, and 18S RNA are available upon request. A fluorogenic SYBR Green and MJ research detection system were used for real time quantification.
Hydrogen peroxide studies. Measurement of H2O2 was performed using the Amplex Red Hydrogen peroxide Assay Kit and the CM-H2DCFDA reagent (both Molecular Probe). Cells were exposed to hypoxia for 10 h, and then culture medium was switched to Krebs-Ringer phosphate buffer^30 containing 100 μM Amplex Red reagent and 0.2 U/mL HRP. After additional incubation in hypoxia for 1 h, fluorescence was measured in 96-well plates by Spectra MAX GEMINI XS microplate fluorometer (Molecure Devices). Cells were also incubated with 10 μM CM-H2DCFDA for 30 minutes in RPMI without phenol red. Fluorescence was measured in 96 well plates and values were normalized to cell number. 20 or 40 μM t-butyl hydroperoxide (t-BH, Sigma) was added to the culture media of DLD-1 cells every 30 minutes for 6 hours, and IL-8 mRNA levels were measured by qRT-PCR.
On the technique in general: In qPCR the cycle at which signal appears reflects the starting amount.

The subject of experiment [2] is IL8 promoter. Briefly: IL-8 promoter reporter assay in Caco2 cells with KRAS^V12 and hypoxia. In kind it is cell-based. On the procedure:
as §1, §2

For the next experiment, the system named is NF-κB. Briefly: NF-κB reporter assay in DLD-1^HIF-kd cells in hypoxia. Type of experiment: cell-based. On the procedure:
Cell lines. DLD-1 and Caco2 cells (ATCC) were stably transfected with HIF-1α siRNA constructs (pSuper.retro, OligoEngine), pSR.HIF-1α1470 or pSR.HIF-1α2192^10. […] Transient transfections were performed using Lipofectamine 2000 (Invitrogen).
as §2

The subject of the next experiment is VEGF. The settings on record: plus chemotherapy vs chemotherapy alone; cited from earlier work.

Chain of VEGF (P15692 207-311 limits assumed): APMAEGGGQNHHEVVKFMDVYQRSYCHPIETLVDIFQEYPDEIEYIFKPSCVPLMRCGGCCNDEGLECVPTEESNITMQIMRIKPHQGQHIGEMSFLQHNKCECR

On to `Cc1ccc(S(=O)(=O)/C=C/C#N)cc1` [BAY 11-7082], for which, in the experiment with IL8 promoter [1], the “hypoxic induction of the IL8 promoter” value is “significantly down-regulated”. Also, in the experiment on IL-8 (5 μM BAY 11-7082), the “induction of IL-8 by t-butyl hydroperoxide” value is recorded as “inhibited”. Besides, the “induction of the IL8 promoter by hypoxia and KRAS^V12” value in the experiment on IL8 promoter [2] is “blocked”.
With `c1ccc2c(c1)[I+]c1ccccc1-2` [diphenylene iodonium], in the experiment on NF-κB, the “induction of NF-κB promoter activity by hypoxia” value is “strongly blocked”.
On the same count and under the same terms, the same measure for `C=C(C)[C@H]1Cc2c(ccc3c2O[C@@H]2COc4cc(OC)c(OC)cc4[C@@H]2C3=O)O1` [rotenone]: “strongly blocked”.
Take `CC(C)(C)OO` [t-butyl hydroperoxide]: in the experiment with IL-8 (exogenous administration), the “production of IL-8” value is “stimulated”.
“Avastin: A monoclonal antibody to VEGF; recombinant humanized antibody (Genentech)”: in the experiment with VEGF, the survival entry is “greater” and the time to progression result was “highly significant longer”.
